Measurements from patent US20260167632A1, “NICOTINAMIDE DERIVATIVES FOR USE IN TREATING DISORDERS ASSOCIATED WITH KCNK13 ACTIVITY” (Cerevance, Inc., priority 2022, published 2026).

What follows are compounds tested against T1, human KCNK13 (Homo sapiens, UniProt Q9HB14) (assay: KCNK13 antagonist activity, thallium flux FLIPR assay in HEK 293 cells stably expressing human KCNK13). Settings: HEK 293 cells stably expressing human KCNK13, Tl+ sensitive dye, compound 15 min before thallium sulfate, ten point curves; read-out: hKCNK13 IC50.
T1 construct: expressed in transfected cells
T1 sequence (Q9HB14 1-408): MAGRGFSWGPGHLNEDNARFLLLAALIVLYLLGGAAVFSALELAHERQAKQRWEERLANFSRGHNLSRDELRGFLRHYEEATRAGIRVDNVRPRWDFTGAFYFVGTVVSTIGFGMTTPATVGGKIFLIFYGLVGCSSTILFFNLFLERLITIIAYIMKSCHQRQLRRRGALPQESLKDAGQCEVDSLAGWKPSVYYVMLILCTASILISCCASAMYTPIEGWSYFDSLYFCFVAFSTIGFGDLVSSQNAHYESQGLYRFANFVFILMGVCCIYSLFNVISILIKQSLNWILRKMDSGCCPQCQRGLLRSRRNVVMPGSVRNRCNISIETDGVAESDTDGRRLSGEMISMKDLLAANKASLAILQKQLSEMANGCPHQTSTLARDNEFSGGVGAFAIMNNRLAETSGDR
Assay type: cell-based
Procedure: 4. Biological Efficacy of Compounds of the Invention
KCNK13 antagonist activity was determined by measuring changes in intracellular Thallium (Tl^+) concentrations using a Tl^+ sensitive fluorescent dye. The changes in fluorescent signal were monitored by Fluorescent Imaging Plate Reader (FLIPR™) technology available from Molecular Devices, LLC, US. KCNK13 mediated increases in intracellular Tl^+ concentration were readily detected by addition of a thallium sulfate Stimulus. 24 hours prior to the assay, human embryonic kidney 293 cells (HEK 293 cells) stably expressing human KCNK13 were seeded in cell culture medium in PDL coated black, clear-bottom 384-well plates (commercially available from Corning Inc., 356663) and grown overnight at 37° C., […]. On the day of the assay, cell culture media was removed and cells were loaded with potassium dye (commercially sold by Molecular Devices, LLC, US, R8222) for 1 hour at room temperature in the dark. Test compounds (at 10 point half log concentration response curves from 100 µM) were added to cells for 15 minutes prior to the addition of thallium sulfate to all wells. The IC50 values were determined from ten point concentration response curves. Curves were generated using the average of two wells for each data point.

CN(C(=O)c1cc(F)cnc1OC(F)F)C1COc2c(F)cccc21 (centres unmarked) [Example 75, 2-(difluoromethoxy)-5-fluoro-N-(7-fluoro-2,3-dihydrobenzofuran-3-yl)-N-methylnicotinamide] and CN(C(=O)c1cc(Cl)cnc1OC(F)F)C1COc2c(F)cccc21 (centres unmarked) [Example 92, 5-chloro-2-(difluoromethoxy)-N-(7-fluoro-2,3-dihydrobenzofuran-3-yl)-N-methylnicotinamide] cannot be ordered by IC50: at most 500 nM for the first, at most 500 nM for the second.

Cc1cc(F)cc(CN(C)C(=O)c2cc(Cl)cnc2OC(F)F)c1 [Example 76, 5-chloro-2-(difluoromethoxy)-N-(3-fluoro-5-methylbenzyl)-N-methylnicotinamide] and CN(Cc1cc(F)cc(F)c1)C(=O)c1cc(Cl)cnc1OC(F)F [Example 78, 5-chloro-N-(3,5-difluorobenzyl)-2-(difluoromethoxy)-N-methylnicotinamide] cannot be ordered by IC50: at most 200 nM for the first, at most 50 nM for the second.

CN(C(=O)c1cc(Cl)cnc1OC(F)F)C1COc2cc(F)ccc21 (centres unmarked) [Example 77, 5-chloro-2-(difluoromethoxy)-N-(6-fluoro-2,3-dihydrobenzofuran-3-yl)-N-methylnicotinamide] and CN(C(=O)c1cc(Cl)cnc1OC(F)F)C1COc2ccccc21 (centres unmarked) [Example 91, 5-chloro-2-(difluoromethoxy)-N-(2,3-dihydrobenzofuran-3-yl)-N-methylnicotinamide] cannot be ordered by IC50: at most 500 nM for the first, at most 500 nM for the second.

CN(Cc1cc(F)cc(Cl)c1)C(=O)c1cc(Cl)cnc1OC(F)F [Example 79, 5-chloro-N-(3-chloro-5-fluorobenzyl)-2-(difluoromethoxy)-N-methylnicotinamide] and CN(Cc1cccc(Cl)c1)C(=O)c1cc(Cl)cnc1OC(F)F [Example 84, 5-chloro-N-(3-chlorobenzyl)-2-(difluoromethoxy)-N-methylnicotinamide] cannot be ordered by IC50: at most 200 nM for the first, at most 100 nM for the second.

Cc1cccc(CN(C)C(=O)c2cc(Cl)cnc2OC(F)F)c1 [Example 80, 5-chloro-2-(difluoromethoxy)-N-methyl-N-(3-methylbenzyl)nicotinamide] and CN(Cc1cccc(F)c1)C(=O)c1cc(Cl)cnc1OC(F)F [Example 101, 5-chloro-2-(difluoromethoxy)-N-(3-fluorobenzyl)-N-methylnicotinamide] cannot be ordered by IC50: at most 100 nM for the first, at most 100 nM for the second.

COc1cccc(CN(C)C(=O)c2cc(Cl)cnc2OC(F)F)c1 [Example 81, 5-chloro-2-(difluoromethoxy)-N-(3-methoxybenzyl)-N-methylnicotinamide] and CN(Cc1cccc(OC(F)F)c1)C(=O)c1cc(Cl)cnc1OC(F)F [Example 98, 5-chloro-2-(difluoromethoxy)-N-(3-(difluoromethoxy)benzyl)-N-methylnicotinamide] cannot be ordered by IC50: at most 200 nM for the first, at most 200 nM for the second.

CN(Cc1cccc(C(F)(F)F)c1)C(=O)c1cc(Cl)cnc1OC(F)F [Example 82, 5-chloro-2-(difluoromethoxy)-N-methyl-N-(3-(trifluoromethyl)benzyl)nicotinamide] and CN(Cc1cccc(OC(F)(F)F)c1)C(=O)c1cc(Cl)cnc1OC(F)F [Example 99, 5-chloro-2-(difluoromethoxy)-N-methyl-N-(3-(trifluoromethoxy)benzyl)nicotinamide] cannot be ordered by IC50: at most 500 nM for the first, at most 1000 nM for the second.

CC(c1cccc(F)c1)N(C)C(=O)c1cc(F)cnc1OC(F)F (centres unmarked) [Example 83, 2-(difluoromethoxy)-5-fluoro-N-(1-(3-fluorophenyl)ethyl)-N-methylnicotinamide] and CN(Cc1cccc(F)c1)C(=O)c1cc(F)cnc1OC(F)F [Example 95, 2-(difluoromethoxy)-5-fluoro-N-(3-fluorobenzyl)-N-methylnicotinamide] cannot be ordered by IC50: at most 100 nM for the first, at most 100 nM for the second.

CN(C(=O)c1cc(F)cnc1OC(F)F)C1COc2ccccc21 (centres unmarked) [Example 85, 2-(difluoromethoxy)-N-(2,3-dihydrobenzofuran-3-yl)-5-fluoro-N-methylnicotinamide] and CN(Cc1cccc(F)c1F)C(=O)c1cc(F)cnc1OC(F)F [Example 93, N-(2,3-difluorobenzyl)-2-(difluoromethoxy)-5-fluoro-N-methylnicotinamide] cannot be ordered by IC50: at most 200 nM for the first, at most 100 nM for the second.

CN(Cc1cccc(C#N)c1)C(=O)c1cc(Cl)cnc1OC(F)F [Example 90, 5-chloro-N-(3-cyanobenzyl)-2-(difluoromethoxy)-N-methylnicotinamide] and CN(Cc1cccc(F)c1F)C(=O)c1cc(Cl)cnc1OC(F)F [Example 102, 5-chloro-N-(2,3-difluorobenzyl)-2-(difluoromethoxy)-N-methylnicotinamide] cannot be ordered by IC50: at most 500 nM for the first, at most 100 nM for the second.

CN(Cc1ccc(F)cc1F)C(=O)c1cc(F)cnc1OC(F)F [Example 94, N-(2,4-difluorobenzyl)-2-(difluoromethoxy)-5-fluoro-N-methylnicotinamide] and CN(Cc1ccc(F)cc1F)C(=O)c1cc(Cl)cnc1OC(F)F [Example 100, 5-chloro-N-(2,4-difluorobenzyl)-2-(difluoromethoxy)-N-methylnicotinamide] cannot be ordered by IC50: at most 100 nM for the first, at most 100 nM for the second.

CN(Cc1cccc(F)c1)C(=O)c1cc(C(F)(F)F)cnc1OC(F)F [Example 96, 2-(difluoromethoxy)-N-(3-fluorobenzyl)-N-methyl-5-(trifluoromethyl)nicotinamide] and CN(Cc1cccc(F)c1)C(=O)c1cc(C2CCC2)cnc1OC(F)F [Example 97, 5-cyclobutyl-2-(difluoromethoxy)-N-(3-fluorobenzyl)-N-methylnicotinamide] cannot be ordered by IC50: at most 500 nM for the first, at most 1000 nM for the second.

CN(Cc1cc(F)cc(F)c1)S(=O)(=O)c1cc(F)cnc1OC(F)F [Example 103, N-(3,5-difluorobenzyl)-2-(difluoromethoxy)-5-fluoro-N-methylpyridine-3-sulfonamide] and CN(Cc1cccc(F)c1)S(=O)(=O)c1cc(F)cnc1OC(F)F [Example 112, 2-(difluoromethoxy)-5-fluoro-N-(3-fluorobenzyl)-N-methylpyridine-3-sulfonamide] cannot be ordered by IC50: at most 200 nM for the first, at most 100 nM for the second.

C[C@H](c1cccc(F)c1)N(C)S(=O)(=O)c1cc(F)cnc1OC(F)F [Example 104, (R)-2-(difluoromethoxy)-5-fluoro-N-(i-(3-fluorophenyl)ethyl)-N-methylpyridine-3-sulfonamide] and C[C@@H](c1cccc(F)c1)N(C)S(=O)(=O)c1cc(F)cnc1OC(F)F [Example 105, (S)-2-(difluoromethoxy)-5-fluoro-N-(1-(3-fluorophenyl)ethyl)-N-methylpyridine-3-sulfonamide] cannot be ordered by IC50: at most 1000 nM for the first, at most 1000 nM for the second.

CN(Cc1cccc(C#N)c1)S(=O)(=O)c1cc(F)cnc1OC(F)F [Example 106, N-(3-cyanobenzyl)-2-(difluoromethoxy)-5-fluoro-N-methylpyridine-3-sulfonamide] and CN(Cc1cccc(Cl)c1)S(=O)(=O)c1cc(F)cnc1OC(F)F [Example 108, N-(3-chlorobenzyl)-2-(difluoromethoxy)-5-fluoro-N-methylpyridine-3-sulfonamide] cannot be ordered by IC50: at most 500 nM for the first, at most 200 nM for the second.

CN(Cc1cccc(F)c1F)S(=O)(=O)c1cc(F)cnc1OC(F)F [Example 107, N-(2,3-difluorobenzyl)-2-(difluoromethoxy)-5-fluoro-N-methylpyridine-3-sulfonamide] and CN(Cc1cccc(F)c1)S(=O)(=O)c1cc(Cl)cnc1OC(F)F [Example 113, 5-chloro-2-(difluoromethoxy)-N-(3-fluorobenzyl)-N-methylpyridine-3-sulfonamide] cannot be ordered by IC50: at most 100 nM for the first, at most 500 nM for the second.

CCN(Cc1cccc(F)c1)S(=O)(=O)c1cc(F)cnc1OC(F)F [Example 109, 2-(difluoromethoxy)-N-ethyl-5-fluoro-N-(3-fluorobenzyl)pyridine-3-sulfonamide] and O=S(=O)(c1cc(F)cnc1OC(F)F)N1CCc2ccc(F)cc2C1 [Example 111, 2-((2-(difluoromethoxy)-5-fluoropyridin-3-yl)sulfonyl)-7-fluoro-1,2,3,4-tetrahydroisoquinoline] cannot be ordered by IC50: at most 1000 nM for the first, at most 200 nM for the second.

O=S(=O)(c1cc(F)cnc1OC(F)F)N1CCc2ccccc2C1 [Example 110, 2-((2-(difluoromethoxy)-5-fluoropyridin-3-yl)sulfonyl)-1,2,3,4-tetrahydroisoquinoline] and O=S(=O)(c1cc(F)cnc1OC(F)F)N1CCOc2ccc(F)cc2C1 [Example 114, 4-((2-(difluoromethoxy)-5-fluoropyridin-3-yl)sulfonyl)-7-fluoro-2,3,4,5-tetrahydrobenzo[f][1,4]oxazepine] cannot be ordered by IC50: at most 100 nM for the first, at most 200 nM for the second.

O=S(=O)(c1cc(Cl)cnc1OC(F)F)N1CCOc2ccc(F)cc2C1 [Example 115, 4-((5-chloro-2-(difluoromethoxy)pyridin-3-yl)sulfonyl)-7-fluoro-2,3,4,5-tetrahydrobenzo[f][1,4]oxazepine] and O=S(=O)(c1cc(F)cnc1OC(F)F)N1CCc2cc(F)cc(F)c2C1 [Example 116] cannot be ordered by IC50: at most 500 nM for the first, at most 500 nM for the second.
